These results are taken from patent US20210052632A1, “SELECTIVE PARP1 INHIBITORS TO TREAT CANCER” (Cambridge Enterprise Limited, priority 2018, published 2021).

Like-named read-outs stand apart in the source and are kept apart here.

For series [1], the target named is T1, human full length active PARP2 (Homo sapiens, UniProt Q9UGN5).
T1 construct: human full length active PARP1 (CS207770, Merck), PARP2 (ab198766, Abeam); purchased Abcam ab198766
The experiment in a line: PARP inhibitor assay, fluorescence-based, PARP2. The class given is biochemical. From the text: (§1) The PARP inhibitor assay is a direct fluorescence-based concentration measurement of reaction product formation. The assay reagents are sold as a commercial kit (see http://www.merckmillipore.com/GB/en/product/PARP1-Enzyme-Activity-Assay,MM_NF-17-10149). To measure PARP inhibition, the NAD+ substrate concentration should be set at Km (the Michaelis constant) to enable identifications of all types of inhibitors (competitive, uncompetitive and non-competitive (allosteric) (the latter represents a mode of action of Zn-finger inhibitors)), direct calculation of inhibitor potency (Ki) and in vivo modelling. (See in and literature sited therein: Michael G. Acker, Douglas S. Auld. Considerations for the design and reporting of enzyme assays in high-throughput screening applications. Perspectives in Science (2014) 1, 56-73).
(§2) PARP activity and inhibition was measured for human full length active PARP1 (CS207770, Merck), PARP2 (ab198766, Abeam) and PARP3 (ab79638, Abeam) proteins. Inhibitor compounds (Sodium Aurothiomalate and Aurothioglucose, Sigma-Aldrich and Auranofin, Bio-Techne) at different concentrations (1, 10 and 100 nM, 1, 10 and 100 μM final) were added to the reaction buffer, concocted as a 1:1 mixture of Merck kit buffer with 50 mM Tris-HCl, 100 mM NaCl, 5 mM MgCl2, 0.05% Tween-20, pH 8.0, Sigma), and incubated with PARP1 (2.5 ng/μL final), PARP2 (2.2 ng/μL final) or PARP3 (55 ng/μL final) at room temperature for 30 min.
(§3) Further, activated DNA (2 ng/μL final), […] (60 and 400 μM final for PARP1/2 and PARP3, respectively) and Nicotinamidase (200 ng/μL final) were added and incubated at 37° C. for 45 min. Total reaction volume was 25 μL.
(§4) Controls were executed as follows: • 1. Control of 0% inhibition contained reaction sample without inhibitor; • 2. Control of 100% inhibition of PARP1/2/3 activity contained reaction sample without β-NAD; and • 3. Control of 100% inhibition of DNA-dependent activity contained reaction sample without DNA.
(§5) After the plates were cooled down to room temperature, 25 μL of Merck proprietary reagent was added to the reaction mixture and incubated at mild shaking for 45 min. Fluorescence measurement was carried out at excitation wavelength of 410 nm and emission of 460 nm in Fluostar Omega microplate reader (BMG Labtech).
(§6) Total PARP1/2/3 activity was calculated as a difference between control (1) and control (2). DNA-independent activity was calculated as a difference between control (1) and control (3). DNA-dependent activity was calculated as the difference between the total PARP1/2/3 activity and DNA-independent activity. […] However, potentially up to 30% of PARP1 activity can be DNA-independent.
(§7) Inhibitory values were converted into percentages according to controls. Controls (1) and (3) were used in the case of PARP1, because only inhibition of DNA-dependent activity was observed, and the results are shown in FIG. 2. Controls (1) and (2) were used in the case of PARP2/3, because inhibition of total PARP2/3 activity (both DNA-dependent and DNA-independent reactions) was observed. FIGS. 3 and 4 show the percentage inhibition of PARP1 and PARP2 for different concentrations of aurothiomalate and aurothioglucose, respectively.

For series [2], the target named is T2, human full length active PARP1 (Homo sapiens, UniProt P09874).
T2 construct: human full length active PARP1 (CS207770, Merck); purchased Merck CS207770
T2 sequence (P09874 whole entry): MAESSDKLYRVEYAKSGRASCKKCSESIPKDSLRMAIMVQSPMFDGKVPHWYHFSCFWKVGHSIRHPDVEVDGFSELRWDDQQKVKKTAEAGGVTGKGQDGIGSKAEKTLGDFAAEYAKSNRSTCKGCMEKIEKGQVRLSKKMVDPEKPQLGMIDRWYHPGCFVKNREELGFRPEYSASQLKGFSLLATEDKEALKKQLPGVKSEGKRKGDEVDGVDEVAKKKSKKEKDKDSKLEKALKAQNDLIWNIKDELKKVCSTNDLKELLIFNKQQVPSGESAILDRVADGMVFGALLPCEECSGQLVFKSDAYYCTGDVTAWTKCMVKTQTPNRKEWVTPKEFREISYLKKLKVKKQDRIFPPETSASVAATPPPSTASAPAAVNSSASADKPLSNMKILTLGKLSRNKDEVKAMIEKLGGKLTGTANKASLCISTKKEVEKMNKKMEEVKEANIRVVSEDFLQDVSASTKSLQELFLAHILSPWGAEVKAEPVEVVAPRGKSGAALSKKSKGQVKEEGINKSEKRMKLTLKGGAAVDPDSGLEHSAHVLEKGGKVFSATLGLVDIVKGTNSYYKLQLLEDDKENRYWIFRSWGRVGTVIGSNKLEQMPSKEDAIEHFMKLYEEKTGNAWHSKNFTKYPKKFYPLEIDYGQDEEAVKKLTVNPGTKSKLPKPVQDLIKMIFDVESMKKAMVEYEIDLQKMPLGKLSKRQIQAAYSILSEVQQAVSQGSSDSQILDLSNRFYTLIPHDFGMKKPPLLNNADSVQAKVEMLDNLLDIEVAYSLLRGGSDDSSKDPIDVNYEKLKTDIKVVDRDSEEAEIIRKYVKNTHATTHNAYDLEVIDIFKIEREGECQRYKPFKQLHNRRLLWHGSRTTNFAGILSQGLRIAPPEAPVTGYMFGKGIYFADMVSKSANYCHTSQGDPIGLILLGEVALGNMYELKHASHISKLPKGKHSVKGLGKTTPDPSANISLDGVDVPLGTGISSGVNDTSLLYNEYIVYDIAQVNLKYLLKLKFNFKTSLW
The experiment in a line: PARP inhibitor assay, fluorescence-based (PARP1 Enzyme Activity Assay kit), PARP1. The class given is biochemical.
Source text: as §1, §2, §3, §4, §5, §6, §7

Series [3] has as its target T3, human full length active PARP3 (Homo sapiens, UniProt Q9Y6F1).
T3 construct: human full length active PARP1 (CS207770, Merck), PARP2 (ab198766, Abeam) and PARP3 (ab79638, Abeam) proteins; purchased Abcam ab79638
T3 sequence (Q9Y6F1 1-533): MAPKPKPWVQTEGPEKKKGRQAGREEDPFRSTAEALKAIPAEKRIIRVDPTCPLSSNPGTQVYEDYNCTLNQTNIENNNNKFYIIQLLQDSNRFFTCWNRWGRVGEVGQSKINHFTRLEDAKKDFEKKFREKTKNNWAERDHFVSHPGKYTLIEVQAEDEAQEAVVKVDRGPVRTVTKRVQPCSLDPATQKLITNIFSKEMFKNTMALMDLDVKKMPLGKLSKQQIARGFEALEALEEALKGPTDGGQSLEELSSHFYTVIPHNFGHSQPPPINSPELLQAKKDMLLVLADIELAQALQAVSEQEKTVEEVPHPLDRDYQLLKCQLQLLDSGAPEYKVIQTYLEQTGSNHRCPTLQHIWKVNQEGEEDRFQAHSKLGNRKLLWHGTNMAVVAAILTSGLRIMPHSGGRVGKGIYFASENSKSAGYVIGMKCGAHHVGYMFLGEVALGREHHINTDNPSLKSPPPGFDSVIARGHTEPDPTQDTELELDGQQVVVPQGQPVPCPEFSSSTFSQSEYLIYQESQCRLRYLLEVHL
In words: PARP inhibitor assay, fluorescence-based, PARP3. Particulars: for IC50: inhibition of total PARP3 activity (controls 1 and 2), 400 μM β-NAD. The class given is biochemical.
Source text: as §1, §2, §3, §4, §5, §6
Inhibitory values were converted into percentages according to controls. […]

In series [4] the test system is rats fed a high adenine/low protein diet (chronic kidney disease). The experiment in a line: Bone density in rat model on high adenine/low protein diet (CKD), SEM/TEM of long limb bone cross sections. The class given is in vivo. The settings on record: 50 mg/kg/day for 6 weeks; cortical area of long limb bone cross section; vs control and untreated CKD-diet rats; FIG. 8b. How it is done: The effects of minocycline on bone calcification processes were evaluated in an in vivo rat model. The rats were fed a high adenine/low protein diet in order to develop chronic kidney disease (CKD) and associated hyperphosphatemia and medial vascular calcification. It is also expected to cause increased rates of bone turnover, allowing the inventors to examine whether inhibition of PARP2 enzymatic activity during bone remodelling affected mineralization. 14 of the rats on the high adenine/low protein diet were treated with 50 mg/kg/day of minocycline for 6 weeks. At the end of the study period cross sections of the long limb bone were analysed using scanning electron microscopy (SEM) and transmission electron microscopy (TEM), see FIG. 7, and the area fraction of solid bone in the cortical area of the bone cross section was quantified from these images, see FIG. 8. Statistical significance was determined by Mann-Whitney test.

The mark [5] stands for this setting: inhibition of total PARP2 activity (controls 1 and 2), 60 μM β-NAD, read-out: IC50 PARP2.
The mark [6] stands for this setting: inhibition of DNA-dependent activity (controls 1 and 3), 60 μM β-NAD, activated DNA, read-out: IC50 PARP1.

T1 sequence (Q9UGN5 whole entry): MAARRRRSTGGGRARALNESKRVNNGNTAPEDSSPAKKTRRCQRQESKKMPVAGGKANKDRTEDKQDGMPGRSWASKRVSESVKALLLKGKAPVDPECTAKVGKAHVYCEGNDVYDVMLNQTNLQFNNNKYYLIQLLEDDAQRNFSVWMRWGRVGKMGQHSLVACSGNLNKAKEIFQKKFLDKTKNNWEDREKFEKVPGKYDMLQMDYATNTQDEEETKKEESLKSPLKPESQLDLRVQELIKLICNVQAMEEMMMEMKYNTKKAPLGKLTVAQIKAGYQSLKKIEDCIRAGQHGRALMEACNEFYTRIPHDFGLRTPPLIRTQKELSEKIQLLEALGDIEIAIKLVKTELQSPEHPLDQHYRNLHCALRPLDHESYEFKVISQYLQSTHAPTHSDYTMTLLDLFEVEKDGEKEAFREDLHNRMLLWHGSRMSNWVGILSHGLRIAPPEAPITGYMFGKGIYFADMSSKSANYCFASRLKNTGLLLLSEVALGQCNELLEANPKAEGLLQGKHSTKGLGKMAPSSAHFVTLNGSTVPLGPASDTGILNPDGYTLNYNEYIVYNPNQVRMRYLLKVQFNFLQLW

The term IC50 denotes the concentration needed to halve the response being measured. Take `CC(=O)OC[C@H]1O[C@@H]([S-])[C@H](OC(C)=O)[C@@H](OC(C)=O)[C@@H]1OC(C)=O.CCP(CC)CC.[Au+]` [Auranofin]: the “PARP2 inhibition (in words)” value in series [1] is “only inhibits PARP1 and PARP2 at very high concentrations”. The concentration for half-maximal inhibition (IC50) in series [1] (setting [5]) is 1.16 ± 0.081 µM; in series [2] (setting [6]), 1.4 ± 0.098 µM. In addition, the “PARP1 inhibition (in words)” value in series [2] (FIG. 2 and Table 1) is “only inhibits PARP1 and PARP2 at very high concentrations”.
Consider `OC[C@H]1OC([S][Au])[C@H](O)[C@@H](O)[C@@H]1O` (some centres unmarked) [Aurothioglucose], for which the “PARP2 inhibition (in words)” value in series [1] is listed as “not inhibited”. Also, the IC50 in series [1] (setting [5]) amounted to 4.45 ± 0.623 µM. Besides, in series [3], the “PARP3 inhibition (in words)” value was “not inhibited” and it took 1.14 ± 0.02 µM to reach half-maximal inhibition (IC50). Moreover, in series [2], the “DNA-independent PARP1 activity in the presence of the compound” value was “maintained” and the IC50 stood at 0.12 ± 0.007 µM.
For the compound Sodium Aurothiomalate, the “PARP2 inhibition (in words)” value in series [1] was “not inhibited”. In addition, the IC50 in series [1] (setting [5]) was 1.19 ± 0.19 µM; in series [3], 1.16 ± 0.093 µM; in series [2] (setting [6]) it was 0.048 ± 0.007 µM. Moreover, the “PARP3 inhibition (in words)” value in series [3] is on record as “not inhibited”. In series [2], the “DNA-independent PARP1 activity in the presence of the compound” value is “maintained”.
Turning to `CN(C)c1ccc(O)c2c1C[C@H]1C[C@H]3[C@H](N(C)C)C(O)=C(C(N)=O)C(=O)[C@@]3(O)C(O)=C1C2=O` [minocycline], the half-inhibitory concentration (IC50) in series [1] worked out at 2.8 µM; in series [2] (assay of Example 1, FIG. 6, read-out: IC50 PARP1), 204 µM. In series [1] (ratio of PARP1 and PARP2 IC50), the “PARP2 vs PARP1 selectivity factor” value is given as “greater than 70 ×”. The “reduction in the area fraction of solid bone” value in series [4] was 25%.
